Columns and labels:
HCT-116 = assay: Anticancer activity against human HCT-116 cells assessed as inhibition of cell viability incubated for 16 hrs by MTT assay; format: functional, cell-based; conditions: HCT-116, 16 h
[1] = Cytotoxicity against HEK293 cells assessed as reduction in cell viability incubated for 16 hrs by MTT assay; format: toxicity, cell-based; conditions: human

IC50 (HCT-116) | SMILES | IC50 at 16 h [1]
7.8 µM | CO[C@H]1C/C=C/[C@@H](O)CC(=O)O[C@@H](c2ccc(C)cc2)C/C=C/C=C/C[C@H](C)/C=C/1C | 16.5 µM
6.9 µM | C/C=C/C/C(C)=C\[C@H]1C/C=C/C=C/C[C@H](C)/C=C(\C)[C@@H](O)C/C=C/[C@@H](O)CC(=O)O1 | 21.6 µM

Continued, compound first:

SMILES | IC50 (HCT-116) | IC50 at 16 h [1]
C/C=C/C/C(C)=C\[C@H]1C/C=C/C=C/C[C@H](C)/C=C(\C)[C@@H](OC)C/C=C/[C@@H](O)CC(=O)O1 | 3.2 µM | 20.6 µM
C/C=C/C/C(C)=C\[C@@H]1C/C=C/C=C/C[C@H](C)/C=C(\C)[C@@H](OC)C/C=C/[C@@H](O)CC(=O)O1 | 8.9 µM | 18.1 µM
C/C=C/C/C(C)=C\[C@H]1C/C=C/C=C/C[C@H](C)/C=C(\C)[C@@H](OC)C/C=C/CCC(=O)O1 | 15.6 µM | 15.2 µM
C/C=C/C/C(C)=C\[C@H]1C/C=C/C=C/CC/C=C(\C)[C@@H](OC)C/C=C/[C@@H](O)CC(=O)O1 | 6.8 µM | 12.5 µM

Reference: ChEMBL document CHEMBL5634186, “Structure-Activity Relationship Study of Biselyngbyolide B Reveals Mitochondrial Fission-Induced Cytotoxicity in Cancer” (ACS Med Chem Lett, 2024)
